According to patent publication US7112601B2, “Cycloalkyl heterocycles for treating hepatitis C virus” (priority 2003, dated 2006):

system: HCV; assay: not given; conditions: combination therapy, HCV patients (Poynard et al. Lancet 1998); cited from earlier work

Molecule | sustained efficacy
alpha-interferon and ribavirin | 40 % of patients

molecular target: T1, HCV NS5B RdRp (Hepatitis C virus genotype 1b, UniProt Q9WMX2); assay: HCV NS5B RdRp enzyme inhibition assay; assay type: biochemical; conditions: not given
T1 construct: The protein was expressed with an 18 amino acid C-terminal truncation to enhance the solubility; made in house; host or cells: E. coli BL21(DE3)
T1 sequence (Q9WMX2 2420-2992): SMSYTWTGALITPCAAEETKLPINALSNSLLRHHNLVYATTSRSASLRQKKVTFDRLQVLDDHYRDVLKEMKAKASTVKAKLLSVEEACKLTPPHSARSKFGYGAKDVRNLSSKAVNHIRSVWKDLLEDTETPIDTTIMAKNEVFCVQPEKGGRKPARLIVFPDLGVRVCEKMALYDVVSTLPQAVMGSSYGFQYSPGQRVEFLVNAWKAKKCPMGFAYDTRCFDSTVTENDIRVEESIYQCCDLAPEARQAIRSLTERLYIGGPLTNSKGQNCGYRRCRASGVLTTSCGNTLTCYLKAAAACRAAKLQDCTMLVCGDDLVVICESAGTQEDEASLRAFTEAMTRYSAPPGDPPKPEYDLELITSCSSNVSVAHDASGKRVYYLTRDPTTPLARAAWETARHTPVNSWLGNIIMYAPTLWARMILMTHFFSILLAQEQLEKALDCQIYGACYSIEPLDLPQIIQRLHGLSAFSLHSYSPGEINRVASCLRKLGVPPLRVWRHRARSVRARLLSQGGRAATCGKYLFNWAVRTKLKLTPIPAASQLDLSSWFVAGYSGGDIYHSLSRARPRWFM
Experimental: HCV NS5B RdRp cloning, expression, and purification. The cDNA encoding the NS5B protein of HCV, genotype 1b, was cloned into the pET21a expression vector. The protein was expressed with an 18 amino acid C-terminal truncation to enhance the solubility. The E. coli competent cell line BL21(DE3) was used for expression of the protein. Cultures were grown at 37° C. for ˜4 hours until the cultures reached an optical density of 2.0 at 600 nm. The cultures were cooled to 20° C. and induced with 1 mM IPTG. Fresh ampicillin was added to a final concentration of 50 ug/ml and the cells were grown overnight at 20° C.
Cell pellets (3L) were lysed for purification to yield 15–24 mgs of purified NS5B. The lysis buffer consisted of 20 mM Tris-HCl, pH 7.4, 500 mM NaCl, 0.5% triton X-100, 1 mM DTT, 1 mM EDTA, 20% glycerol, 0.5 mg/ml lysozyme, 10 mM MgCl2, 15 ug/ml deoxyribonuclease I, and Complete TM protease inhibitor tablets (Roche). After addition of the lysis buffer, frozen cell pellets were resuspended using a tissue homogenizer. To reduce the viscosity of the sample, aliquots of the lysate were sonicated on ice using a microtip attached to a Branson sonicator. The sonicated lysate was centrifuged at 100,000×g for 1 hr at 4° C. and filtered through a 0.2 μm filter unit (Corning).
The protein was purified using three sequential chromatography steps: Heparin sepharose CL-6B, polyU sepharose 4B, and Hitrap SP sepharose (Pharmacia). The chromatography buffers were identical to the lysis buffer but contained no lysozyme, deoxyribonuclease I, MgCl2 or protease inhibitor and the NaCl concentration of the buffer was adjusted according to the requirements for charging the protein onto the column. Each column was eluted with a NaCl gradient which varied in length from 5–50 column volumes depending on the column type. After the final chromatography step, the resulting purity of the enzyme is >90% based on SDS-PAGE analysis. The enzyme was aliquoted and stored at −80° C.
HCV NS5B RdRp enzyme assay. HCV RdRp genotype 1b assays were run in assay buffer composed of 20 mM Tris-HCl, pH 7.5, 2.5 mM KCl, 5 mM MgCl2, 1 mM DTT, 1.6 U RNAse inhibitor (Promega N2515), in 96 well plates (Falcon 3918). All compounds were serially diluted in DMSO and diluted further in assay buffer such that the final concentration of DMSO in the assay was 2%. Compounds were serially diluted (3-fold each time) for a 7 point inhibition analysis. HCV RdRp genotype 1b enzyme was used at a final concentration of 28 nM. A polyA template was used at 28 nM, and the oligo-dT12-18 primer was used at 840 nM final concentration. Preannealed primer and template were obtained commercially (Amersham 27-787802). ^3H-UTP was used at 0.125 μCi (1 μM total UTP). Reaction was initiated by the addition of enzyme. Reactions were incubated at 30° C. for 45 min, and stopped by adding 30 ul of 20% ice cold TCA. Plates were chilled for 30 minutes and harvested onto Unifilter-96, GF/B plates (Packard, 6005177) using a Packard FilterMate Cell Harvester. The harvest plates were prewashed 3 times, 200 ul/well, with 100 mM NaPPi. Harvested filters were washed 30 times, 200 ul/well, with distilled water followed by ethanol. Filter plates were dried, and 30 ul/well microscint-20 was added. Plates were read on a Packard Top Count NXT.
The IC50 values for compounds were determined using […] different [I], combined with 7 nM enzyme, 800 ng of the template-primer polyC/oligoG12 (1:5 molar ratio), and 0.7 uM of ^3H GTP containing 1 uCi. The observed fractional activity (fa=vi/vo) was used in the equation IC50=[I]/(1/fa-1) to determine a single point IC50 value. Typically, the single point IC50 values derived from [I] that produced fractional activities in the range of 0.1 to 0.8 relative to the uninhibited control were averaged to calculate the IC50 value for each compound.

Molecule | IC50 [µM]
COc1ccc(-c2ccc(Cl)cc2)c(COc2ccc(-c3c(-c4ccccc4)c(/C=C/C(=O)O)nn3C3CCCCC3)cc2)c1 [Example 28] | 1.3
CCOC(=O)c1cc(C2CCCCC2)n(-c2ccc(OCc3ccccc3)cc2)n1 [Example 29, Ethyl 1-[4-(benzyloxy)phenyl]-5-cyclohexyl-1H-pyrazole-3-carboxylate] | > 25
COC(=O)/C=C/c1cc(C2CCCCC2)n(-c2ccc(OCc3ccccc3)cc2)n1 [Example 30, Methyl (2E)-3-{1-[4-(benzyloxy)phenyl]-5-cyclohexyl-1H-pyrazol-3-yl}-2-propenoate] | > 25
O=C(O)/C=C/c1cc(C2CCCCC2)n(-c2ccc(OCc3ccccc3)cc2)n1 [Example 31, (2E)-3-{1-[4-(benzyloxy)phenyl]-5-cyclohexyl-1H-pyrazol-3-yl}-2-propenoic acid] | 4.5
COC(=O)/C=C/c1cc(C2CCCCC2)n(-c2ccc(OCc3cc(OC)ccc3-c3ccc(Cl)cc3)cc2)n1 [Example 32, Methyl (2E)-3-(1-{4-[(4′-chloro-4-methoxy-1,1′-biphenyl-2-yl)methoxy]phenyl}-5-cyclohexyl-1H-pyrazol-3-yl)-2-propenoate] | > 25
COc1ccc(-c2ccc(Cl)cc2)c(COc2ccc(-n3nc(/C=C/C(=O)O)cc3C3CCCCC3)cc2)c1 [Example 33, (2E)-3-(1-{4-[(4′-chloro-4-methoxy-1,1′-biphenyl-2-yl)methoxy]phenyl}-5-cyclohexyl-1H-pyrazol-3-yl)-2-propenoic acid] | 2.4
CCOC(=O)/C(C)=C/c1cc(C2CCCCC2)n(-c2ccc(OCc3ccccc3)cc2)n1 [Example 34, Ethyl (2E)-3-{1-[4-(benzyloxy)phenyl]-5-cyclohexyl-1H-pyrazol-3-yl}-2-methyl-2-propenoate] | > 25
C/C(=C\c1cc(C2CCCCC2)n(-c2ccc(OCc3ccccc3)cc2)n1)C(=O)O [Example 35, (2E)-3-{1-[4-(benzyloxy)phenyl]-5-cyclohexyl-1H-pyrazol-3-yl}-2-methyl-2-propenoic acid] | > 25
CCOC(=O)/C(C)=C/c1cc(C2CCCCC2)n(-c2ccc(OCc3cc(OC)ccc3-c3ccc(Cl)cc3)cc2)n1 [Example 36, Ethyl (2E)-3-(1-{4-[(4′-chloro-4-methoxy-1,1′-biphenyl-2-yl)methoxy]phenyl}-5-cyclohexyl-1H-pyrazol-3-yl)-2-methyl-2-propenoate] | > 25
CCOC(=O)/C(C)=C/c1cc(C2CCCCC2)n(-c2ccc(OCc3cc(C(=O)NC)ccc3-c3ccc(Cl)cc3)cc2)n1 [Example 38] | > 25
COC(=O)CCc1cc(C2CCCCC2)n(-c2ccc(OCc3ccccc3)cc2)n1 [Example 40, Methyl 3-{1-[4-(benzyloxy)phenyl]-5-cyclohexyl-1H-pyrazol-3-yl}propanoate] | > 25
O=C(O)CCc1cc(C2CCCCC2)n(-c2ccc(OCc3ccccc3)cc2)n1 [Example 41] | 10
COC(=O)CCc1cc(C2CCCCC2)n(-c2ccc(OCc3cc(OC)ccc3-c3ccc(Cl)cc3)cc2)n1 [Example 42, Methyl 3-(1-{4-[(4′-chloro-4-methoxy-1,1′-biphenyl-2-yl)methoxy]phenyl}-5-cyclohexyl-1H-pyrazol-3-yl)propanoate] | > 25
COc1ccc(-c2ccc(Cl)cc2)c(COc2ccc(-n3nc(CCC(=O)O)cc3C3CCCCC3)cc2)c1 [Example 43, 3-(1-{4-[(4′-chloro-4-methoxy-1,1′-biphenyl-2-yl)methoxy]phenyl}-5-cyclohexyl-1H-pyrazol-3-yl)propanoic acid] | 0.31
CC(C)(C)OC(=O)/C=C/c1cn(C2CCCCC2)c(-c2ccc(OCc3ccccc3)cc2)n1 [Example 44, tert-butyl (2E)-3-{2-[4-(benzyloxy)phenyl]-1-cyclohexyl-1H-imidazol-4-yl}-2-propenoate] | > 25
O=C(O)/C=C/c1cn(C2CCCCC2)c(-c2ccc(OCc3ccccc3)cc2)n1 [Example 45, (2E)-3-{2-[4-(benzyloxy)phenyl]-1-cyclohexyl-1H-imidazol-4-yl}-2-propenoic acid] | 6.6
COC(=O)/C=C/c1cn(C2CCCCC2)c(-c2ccc(OCc3ccccc3)cc2)n1 [Example 46, Methyl (2E)-3-{2-[4-(benzyloxy)phenyl]-1-cyclohexyl-1H-imidazol-4-yl}-2-propenoate] | > 25
COC(=O)/C=C/c1cn(C2CCCCC2)c(-c2ccc(OCc3cc(OC)ccc3-c3ccc(Cl)cc3)cc2)n1 [Example 47, Methyl (2E)-3-(2-{4-[(4′-chloro-4-methoxy-1,1′-biphenyl-2-yl)methoxy]phenyl}-1-cyclohexyl-1H-imidazol-4-yl)-2-propenoate] | > 25
COc1ccc(-c2ccc(Cl)cc2)c(COc2ccc(-c3nc(/C=C/C(=O)O)cn3C3CCCCC3)cc2)c1 [Example 48, (2E)-3-(2-{4-[(4′-chloro-4-methoxy-1,1′-biphenyl-2-yl)methoxy]phenyl}-1-cyclohexyl-1H-imidazol-4-yl)-2-propenoic acid] | 5.3
CCOC(=O)/C(C)=C/c1cn(C2CCCCC2)c(-c2ccc(OCc3ccccc3)cc2)n1 [Example 49, Ethyl (2E)-3-{2-[4-(benzyloxy)phenyl]-1-cyclohexyl-1H-imidazol-4-yl}-2-methyl-2-propenoate] | > 25
C/C(=C\c1cn(C2CCCCC2)c(-c2ccc(OCc3ccccc3)cc2)n1)C(=O)O [Example 50, (2E)-3-{2-[4-(benzyloxy)phenyl]-1-cyclohexyl-1H-imidazol-4-yl}-2-methyl-2-propenoic acid] | 15
CCOC(=O)/C(C)=C/c1cn(C2CCCCC2)c(-c2ccc(OCc3cc(OC)ccc3-c3ccc(Cl)cc3)cc2)n1 [Example 51, Ethyl (2E)-3-(2-{4-[(4′-chloro-4-methoxy-1,1′-biphenyl-2-yl)methoxy]phenyl}-1-cyclohexyl-1H-imidazol-4-yl)-2-methyl-2-propenoate] | > 25
COc1ccc(-c2ccc(Cl)cc2)c(COc2ccc(-c3nc(/C=C(\C)C(=O)O)cn3C3CCCCC3)cc2)c1 [Example 52, (2E)-3-(2-{4-[(4′-chloro-4-methoxy-1,1′-biphenyl-2-yl)methoxy]phenyl}-1-cyclohexyl-1H-imidazol-4-yl)-2-methyl-2-propenoic acid] | 2.5
CNC(=O)c1ccc(-c2ccc(Cl)cc2)c(COc2ccc(-c3nc(/C=C(\C)C(=O)OC(C)(C)C)cn3C3CCCCC3)cc2)c1 [Example 53, Butoxy^t (2E)-3-(2-{4-[(4′-chloro-4-N-methylcarbamoyl-1,1′-biphenyl-2-yl)methoxy]phenyl}-1-cyclohexyl-1H-imidazol-4-yl)-2-methyl-2-propenoate] | > 25
CNC(=O)c1ccc(-c2ccc(Cl)cc2)c(COc2ccc(-c3nc(/C=C(\C)C(=O)O)cn3C3CCCCC3)cc2)c1 [Example 54, (2E)-3-(2-{4-[(4′-chloro-4-N-methylcarbamoyl-1,1′-biphenyl-2-yl)methoxy]phenyl}-1-cyclohexyl-1H-imidazol-4-yl)-2-methyl-2-propenoic acid] | 1.6
